Experimental findings from patent EP1421935A1 (Casini, Angela, priority 2002, dated 2004) are described below.

A short description of data set [1]: transcorneal penetration of drugs (in vitro corneal permeability). Conditions: rate constant of transfer across excised rabbit cornea, pH 7.4.
Protocol: The determination of transcorneal penetration of drugs is performed as follows. […] Excised rabbit corneas with either intact or denuded epithelium are used in these experiments. The pH is 7.4 and exposed area is 1.2 cm^2. Concentrations of drug of 40 - 2000 µM are placed in the epithelial chamber and samples of fluid are collected from the endothelial chamber at different intervals, up to 4 hr.
Data set [2] has as its target hCA I (Homo sapiens, UniProt P00915). The experiment in a line: CA inhibition, esterase method (4-nitrophenylacetate hydrolysis).
Protocol: (§1) Stock solutions of inhibitor (1 mM) are prepared in distilled-deionized water with 10-20% (v/v) DMSO (which is not inhibitory at these concentrations) and dilutions up to 0.01 nM are done thereafter with distilled-deionized water. Inhibitor and enzyme solutions are preincubated together for 10 min at room temperature prior to assay, in order to allow for the formation of the E-I complex.
The target of data set [3] is hCA II (Homo sapiens, UniProt P00918). The description is as above.
Protocol: as §1
The target of data set [4] is T1, bCA IV (Bos taurus, UniProt Q95323).
T1 sequence (Q95323 19-284): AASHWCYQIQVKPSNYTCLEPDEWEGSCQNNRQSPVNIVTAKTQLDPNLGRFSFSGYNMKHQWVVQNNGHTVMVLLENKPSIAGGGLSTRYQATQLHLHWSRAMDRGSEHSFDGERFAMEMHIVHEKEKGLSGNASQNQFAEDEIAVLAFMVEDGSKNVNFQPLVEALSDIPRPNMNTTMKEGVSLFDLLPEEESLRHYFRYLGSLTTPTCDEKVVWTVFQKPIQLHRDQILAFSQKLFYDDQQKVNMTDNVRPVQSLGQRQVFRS
The description is as above.
Protocol: as §1

Like-named read-outs stand apart in the source and are kept apart here.

Chain of hCA I (P00915 whole entry): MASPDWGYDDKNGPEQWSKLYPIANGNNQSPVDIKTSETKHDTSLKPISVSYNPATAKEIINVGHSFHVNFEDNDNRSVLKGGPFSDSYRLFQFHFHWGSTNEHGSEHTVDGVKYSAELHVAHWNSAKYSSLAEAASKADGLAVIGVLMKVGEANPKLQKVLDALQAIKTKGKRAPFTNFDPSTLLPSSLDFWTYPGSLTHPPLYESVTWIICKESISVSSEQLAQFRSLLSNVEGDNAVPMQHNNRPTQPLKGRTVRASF

As for `CC(=O)Nc1nnc(S(N)(=O)=O)s1` [Acetazolamide, acetazolamide, reference compound], the “kin x 10^3 (hr^-1) No epithelium” value in data set [1] (denuded epithelium) amounted to 7.0 hr^-1. Besides, the “kin x 10^3 (hr^-1) Cornea intact” value in data set [1] (intact epithelium) was found to be 0.37 hr^-1.

In general, Ki refers to a measure of affinity in units of concentration, obtained from inhibition or displacement. As for `NS(=O)(=O)c1ccc(CNC(=S)NCc2ccccn2)cc1` [B7], the results for the Ki in data set [2], in data set [3] and in data set [4] were 124 nM, 43 nM and 74 nM, respectively.

For `NS(=O)(=O)c1ccc(CNC(=S)NCCc2ccccn2)cc1` [B8], the Ki in data set [2] was found to be 120 nM; in data set [3] it was 38 nM; in data set [4], 75 nM.

As to `NS(=O)(=O)c1ccc(CNC(=S)NCCc2ccccc2)cc1` [B9], the values for the Ki in data set [2], in data set [3] and in data set [4] were 126 nM, 39 nM and 76 nM, respectively.

As for `NS(=O)(=O)c1ccc(CNC(=S)NCCc2c[nH]cn2)cc1` [B10, 1-(4-Sulfamoylphenylmethyl)-3-[(1H-imidazol)-4-yl-ethyl]-thiourea], the inhibitory constant (Ki) is 88 nM in data set [2], 30 nM in data set [3] and 52 nM in data set [4].

As for `NS(=O)(=O)c1ccc(CNC(=S)NCC(=O)O)cc1` [B14, 1-(4-Sulfamoylphenylmethyl)-3-(carboxymethyl)-thiourea], the values for the inhibition constant Ki in data set [2], in data set [3] and in data set [4] were 56 nM, 17 nM and 34 nM, respectively.

On to `CC(NC(=S)NCc1ccc(S(N)(=O)=O)cc1)C(=O)O` (stereo not drawn) [B15], for which the values for the inhibitory constant (Ki) in data set [2], in data set [3] and in data set [4] were 48 nM, 10 nM and 29 nM, respectively.

As for `NS(=O)(=O)c1ccc(CNC(=S)NCCC(=O)O)cc1` [B16], the Ki in data set [2] is 39 nM; in data set [3], 8 nM; in data set [4], 28 nM.

In the case of `NS(=O)(=O)c1ccc(CNC(=S)NCCCC(=O)O)cc1` [B17], the figures for the Ki in data set [2], in data set [3] and in data set [4] were 40 nM, 10 nM and 27 nM, respectively.

`CC(O)C(NC(=S)NCc1ccc(S(N)(=O)=O)cc1)C(=O)O` (stereo not drawn) [B21]: the Ki amounted to 24 nM in data set [2], 2 nM in data set [3] and 13 nM in data set [4].

Take `CSCCC(NC(=S)NCc1ccc(S(N)(=O)=O)cc1)C(=O)O` (stereo not drawn) [B23]: the results for the Ki in data set [2], in data set [3] and in data set [4] were 19 nM, 3 nM and 10 nM, respectively.

For the compound `CC(C)C(NC(=S)NCc1ccc(S(N)(=O)=O)cc1)C(=O)O` (stereo not drawn) [B24], the Ki in data set [2] was found to be 20 nM; in data set [3], 4 nM; in data set [4], 9 nM.

For the compound `CC(C)CC(NC(=S)NCc1ccc(S(N)(=O)=O)cc1)C(=O)O` (stereo not drawn) [B25], the results for the inhibition constant (Ki) in data set [2], in data set [3] and in data set [4] were 17 nM, 3 nM and 11 nM, respectively.

For the compound `CCC(C)C(NC(=S)NCc1ccc(S(N)(=O)=O)cc1)C(=O)O` (stereo not drawn) [B26, 1-(4-Sulfamoylphenylmethyl)-3-(1-carboxy-2-methyl-butyl)-thiourea], the Ki in data set [2] is 18 nM; in data set [3], 4 nM; in data set [4], 8 nM.

As to `NS(=O)(=O)c1ccc(CNC(=S)NC(CC(=O)O)C(=O)O)cc1` (stereo not drawn) [B27], the inhibition constant Ki in data set [2] is 27 nM; in data set [3] it was 7 nM; in data set [4], 15 nM.

On to `NS(=O)(=O)c1ccc(CNC(=S)NC(CCC(=O)O)C(=O)O)cc1` (stereo not drawn) [B29], for which the Ki turned out to be 39 nM in data set [2], 10 nM in data set [3] and 23 nM in data set [4].

Regarding `NC(=O)CCC(NC(=S)NCc1ccc(S(N)(=O)=O)cc1)C(=O)O` (stereo not drawn) [B30], the Ki was 36 nM in data set [2], 9 nM in data set [3] and 21 nM in data set [4].

In the case of `NS(=O)(=O)c1ccc(CNC(=S)N2CCCC2C(=O)O)cc1` (stereo not drawn) [B31], the Ki in data set [2] stood at 89 nM; in data set [3], 21 nM; in data set [4] it was 55 nM.

`NS(=O)(=O)c1ccc(CNC(=S)NC(Cc2cnc[nH]2)C(=O)O)cc1` (stereo not drawn) [B32]: the figures for the Ki in data set [2], in data set [3] and in data set [4] were 33 nM, 6 nM and 14 nM, respectively.

As for `NS(=O)(=O)c1ccc(CNC(=S)NC(Cc2ccccc2)C(=O)O)cc1` (stereo not drawn) [B33, 1-(4-Sulfamoylphenylmethyl)-3-(1-carboxy-2-phenyl-ethyl)-thiourea], the inhibition constant (Ki) in data set [2] was 27 nM; in data set [3] it was 5 nM; in data set [4], 14 nM.

As to `NS(=O)(=O)c1ccc(CNC(=S)NC(Cc2ccc(O)cc2)C(=O)O)cc1` (stereo not drawn) [B34], the Ki is 24 nM in data set [2], 3 nM in data set [3] and 9 nM in data set [4].

Take `NS(=O)(=O)c1ccc(CNC(=S)NC(Cc2ccc(O)c(O)c2)C(=O)O)cc1` (stereo not drawn) [B35]: the Ki in data set [2] was determined as 30 nM; in data set [3] it was 6 nM; in data set [4] it was 14 nM.

Turning to `NS(=O)(=O)c1ccc(CNC(=S)NC(Cc2c[nH]c3ccccc23)C(=O)O)cc1` (stereo not drawn) [B36], the inhibition constant (Ki) in data set [2] worked out at 42 nM; in data set [3], 9 nM; in data set [4], 17 nM.

For the compound `NCCCCC(NC(=S)NCc1ccc(S(N)(=O)=O)cc1)C(=O)O` (stereo not drawn) [B37], the inhibition constant (Ki) came to 73 nM in data set [2], 10 nM in data set [3] and 34 nM in data set [4].

For the compound `N=C(N)NCCCC(NC(=S)NCc1ccc(S(N)(=O)=O)cc1)C(=O)O` (stereo not drawn) [B38], the Ki stood at 103 nM in data set [2], 18 nM in data set [3] and 56 nM in data set [4].

On to `NS(=O)(=O)c1ccc(CNC(=S)NCC(=O)NCC(=O)O)cc1` [B39], for which the Ki in data set [2] came to 50 nM; in data set [3], 13 nM; in data set [4], 26 nM.

Regarding `NS(=O)(=O)c1ccc(CNC(=S)NC(Cc2cnc[nH]2)C(=O)NCC(=O)O)cc1` (stereo not drawn) [B41], the inhibition constant Ki is 12 nM in data set [2], 1 nM in data set [3] and 5 nM in data set [4].

Consider `NS(=O)(=O)c1ccc(CNC(=S)NC(Cc2cnc[nH]2)C(=O)NC(Cc2ccccc2)C(=O)O)cc1` (stereo not drawn) [B42], for which the values for the Ki in data set [2], in data set [3] and in data set [4] were 19 nM, 2 nM and 7 nM, respectively.

Take `CC(NC(=S)NCc1ccc(S(N)(=O)=O)cc1)C(=O)NC(Cc1ccccc1)C(=O)O` (stereo not drawn) [B43]: the Ki worked out at 21 nM in data set [2], 3 nM in data set [3] and 10 nM in data set [4].

Take `CC(C)CC(NC(=S)NCc1ccc(S(N)(=O)=O)cc1)C(=O)NCC(=O)O` (stereo not drawn) [B44]: the Ki came out at 20 nM in data set [2], 4 nM in data set [3] and 11 nM in data set [4].

As for `NS(=O)(=O)c1ccc(CNC(=S)NC(CC(=O)O)C(=O)NC(CC(=O)O)C(=O)O)cc1` (stereo not drawn) [B45], the Ki amounted to 37 nM in data set [2], 12 nM in data set [3] and 25 nM in data set [4].

With `NS(=O)(=O)c1ccc(CNC(=S)N2CCCC2C(=O)NCC(=O)NCC(=O)O)cc1` (stereo not drawn) [B46], the inhibition constant Ki in data set [2] came out at 22 nM; in data set [3], 3 nM; in data set [4], 8 nM.

With `NS(=O)(=O)c1ccc(CNC(=S)NC(CC(=O)O)C(=O)NC(CC(=O)O)C(=O)NC(CC(=O)O)C(=O)NC(CC(=O)O)C(=O)O)cc1` (stereo not drawn) [B47], the Ki in data set [2] came to 51 nM; in data set [3], 9 nM; in data set [4], 24 nM.

Turning to `NS(=O)(=O)c1ccc(CN=C=S)cc1` [B, 4-isothiocyanatomethyl-benzenesulfonamide], the inhibition constant (Ki) was determined as 4300 nM in data set [2], 162 nM in data set [3] and 270 nM in data set [4].

`NS(=O)(=O)c1cc(Cl)c(Cl)c(S(N)(=O)=O)c1` [Dichlorophenamide 6, dichlorophenamide, reference compound]: in data set [4] (read-out: KI (nM) bCA IV, From bovine lung microsomes, by the esterase method, pH 7.40, 25°C), the inhibitory constant (Ki) was determined as 380 nM.
